# Like-named read-outs stand apart in the source and are kept apart here.
# What was measured:
# Assay type in all cases: cell-based
# [1] = test system: PAXF1657 control empty vector; assay: 7-day CellTiter-Glo anti-proliferative assay; details: for Emax: 168 h, read-out: Maximum % Growth inhibition relative to DMSO, geometric mean; for GI50: read-out: GI50, geometric mean
# Protocol: (§1) Cell lines were seeded into tissue culture treated, white-walled, 96-well plates at a density of 500 cells/well in RPM11640 media supplemented with 10% H.I. FBS and penicillin/streptomycin. Plates were incubated overnight at 37° C., 5% CO2 to allow cells to adhere to the wells. GRK2 small molecule antagonists were added to the cells using a ten-point or five-point dilution series with a final concentration ranging from […] in 0.1% DMSO. At the time of compound addition, a set of plates that were not treated with compounds were collected and cell viability was measured using CellTiter-Glo (Promega). CellTiter-Glo reagent was added to the plates and luminescence was measured using a Biotek Synergy plate reader. The compound treated cells were incubated for 3 days at 37° C., 5% CO2. The media was then aspirated from each well and replaced with fresh media containing GRK2 small molecule antagonists. The compound treated cells were then incubated for another 4 days at 37° C., 5% CO2 and cell viability was assessed at the end of the 7-day compound treatment by CellTiterGlo.
# [2] = test system: PAXF1657 stably overexpressing GRK2 cDNA; assay: 7-day CellTiter-Glo anti-proliferative assay; details: PAXF1657, sgNTC, pReceiver-GRK2, 5 or 10 point dose curve; for Emax: 168 h, read-out: Maximum % Growth inhibition relative to DMSO, geometric mean; for GI50: read-out: GI50, geometric mean
# Protocol: as §1
# [3] = test system: sgGrk2-expressing PAXF1657 cells; assay: Colony formation assay in sgGrk2-expressing cells (target specificity); details: PAXF1657, DMSO treatment; for Rel +dox: sgRNA induced (+dox)
# Protocol: To assess the target specificity of the GRK2 small molecule antagonist of Formula III-26, sgGRK2-expressing cells were treated with the compound of Formula III-26. If GRK2 knockout is complete and the compound of Formula III-26 inhibits only GRK2, the addition of the compound of Formula III-26 should not induce any additional growth defect compared to sgRNA KO alone. […] This is potentially due to the lower GRK2 knockout efficiency that can be achieved in PAXF1657 compared to Miapaca2, as shown in Table 16.
# Grk2 protein [4] = assay: Western Blot of Grk2 levels in PAXF1657 lines re-expressing cleavage-resistant Grk2 wild-type or kinase-dead cDNA; details: PAXF1657 expressing the sgRNA, cDNA Empty vector; for GRK2/GAPDH / GRK2 Adj. Vol. (Int): +dox
# Excerpt: (§2) To test whether the Grk2 sgRNAs act through targeting Grk2, and to test whether the anti-proliferative effect results from loss of the Grk2 kinase activity, Grk2 sgRNA expressing PAXF1657 cell lines overexpressing Cas9/sgRNA-cleavage-resistant Grk2 wild-type or kinase-dead cDNA constructs were generated. Re-expression of Cas9/sgRNA-cleavage-resistant Grk2 wild-type or kinase-dead cDNA constructs led to increased Grk2 protein levels, as measured by Western Blot analysis and shown in Table 18.
# PAXF1657 = assay: RFP/GFP competition assay, doxycycline-induced GRK2 knockout
# Protocol: (§3) Next, experiments were performed to evaluate whether GRK2 knockout induced by doxycycline treatment results in a proliferation defect in pancreatic cancer cells. Pancreatic cancer cell lines expressing GRK2 sgRNAs as well as RFP were plated in a ratio of 1:1 with GFP expressing pancreatic cancer cells. Co-plated cells were cultured in the presence or absence of 100 ng/ml doxycycline over the course of 21 days, and the percentage of GFP and RFP-expressing cells was measured over time.
# Grk2 protein [5] = assay: Western Blot of Grk2 levels after doxycycline-induced sgRNA expression; details: PAXF1657, day 7, +dox
# Protocol: To validate the findings from the CRISPR screen, Cas9-expressing pancreatic cell lines were generated that express doxycycline inducible sgRNAs targeting GRK2. Treatment of these cells with 100 ng/ml doxycycline for 3, 7 or 10 days induced a time-dependent depletion of Grk2 protein, confirming the on-target efficacy of the sgRNAs.
# PAXF1657 cells = assay: Growth (RFP/GFP ratio) of sgGrk2 PAXF1657 lines re-expressing Grk2 wild-type or kinase-dead cDNA; details: for sgRNA-induced growth inhibition on re-expression of Grk2 wild-type cDNA: cleavage-resistant Grk2 wild-type cDNA
# Protocol: as §3, §2
# [6] = test system: PAXF1657 stable clone of GRK2 knockout; assay: 7-day CellTiter-Glo anti-proliferative assay; details: PAXF1657, sgGRK2 #2 clonal KO, no cDNA, 10 point dose curve; for GI50: read-out: GI50, geometric mean
# Protocol: as §1
# [7] = PAXF1657, sgNTC, pReceiver-empty vector, 5 or 10 point dose curve
# [8] = PAXF1657, day 3, 100 ng/ml doxycycline
# [9] = PAXF1657, day 7, 100 ng/ml doxycycline
# [10] = PAXF1657, day 10, 100 ng/ml doxycycline
# [11] = PAXF1657, day 14, 100 ng/ml doxycycline
# [12] = PAXF1657, day 17, 100 ng/ml doxycycline
# [13] = PAXF1657, day 21, 100 ng/ml doxycycline
Molecule,"Emax [1, 7]","GI50 [1, 7]",Emax [2],GI50 [2],also measured
Cn1c(CNc2cccc(C(=O)NCc3c(F)cccc3F)c2)nnc1-c1ccncn1 [Compound of Formula III-31],31.6%,> 10 µM,29.8%,> 10 µM,–
"sgGrk2-3: ""sgGrk2-3 (SEQ ID NO: 4)""; ""doxycycline inducible sgRNAs targeting GRK2"" (guide GCACCCCAGAGAGAACCAGT; expressed or natural sequence)",–,–,–,–,"Difference between rel +dox and −dox signal [3]: 0.36; Rel +dox [3]: 0.64; GRK2/GAPDH normalized to −dox (Grk2 protein [4]): −2.47; GRK2/GAPDH (Grk2 protein [4]): −0.04; GRK2 Adj. Vol. (Int) (Grk2 protein [4]): −514,147.69; RFP/GFP ratio +dox normalized to RFP/GFP ratio −dox (PAXF1657; [8]): 0.92; RFP/GFP ratio +dox normalized to RFP/GFP ratio −dox (PAXF1657; [9]): 0.83; RFP/GFP ratio +dox normalized to RFP/GFP ratio −dox (PAXF1657; [10]): 0.64; RFP/GFP ratio +dox normalized to RFP/GFP ratio −dox (PAXF1657; [11]): 0.44; RFP/GFP ratio +dox normalized to RFP/GFP ratio −dox (PAXF1657; [12]): 0.27; RFP/GFP ratio +dox normalized to RFP/GFP ratio −dox (PAXF1657; [13]): 0.24; GRK2/GAPDH normalized to −dox (Grk2 protein [5]): 0.28; GRK2/GAPDH ratio (Grk2 protein [5]): 0.16; GRK2 Avg. Intensity (Grk2 protein [5]): 2,026,964.66; sgRNA-induced growth inhibition on re-expression of Grk2 wild-type cDNA (PAXF1657 cells): less efficient"
CCCn1c(CNc2cccc(C(=O)NCc3ccccc3C(F)(F)F)c2)nnc1-c1ccncn1 [Compound of Formula III-35],83.6%,0.68 µM,81.4%,0.614 µM,–
O=C(NCc1[nH]nc2ccccc12)c1cc([C@@H]2CCNC[C@H]2COc2ccc3c(c2)OCO3)ccc1F [Compound of Formula II-35],–,3.37 µM,–,–,–
O=C(NCc1ccccc1)c1cccc(NCc2nnc(-c3ccncc3)[nH]2)c1 [Compound of Formula III-30],73.1%,4.91 µM,65.5%,3.4 µM,"Maximum % Growth inhibition relative to DMSO, geometric mean [6]: 63.5%; GI50 [6]: > 30 µM"
O=C(NCc1c(F)cccc1F)c1cccc(NCc2nnc3n2CCOc2cnccc2-3)c1 [Compound of Formula III-56],46.5%,> 10 µM,28.3%,> 10 µM,–
COc1ccccc1CNC(=O)c1cccc(NCc2nnc(-c3ccncc3)[nH]2)c1 [Compound of Formula III-28],76.8%,0.653 µM,64.7%,14.7 µM,"Maximum % Growth inhibition relative to DMSO, geometric mean [6]: 78.8%; GI50 [6]: 17.9 µM"
O=C(NCc1ccccc1C(F)(F)F)c1cccc(NCc2nnc(-c3ccncc3)n2CCO)c1 [Compound of Formula III-54],89%,2.52 µM,87.3%,2.71 µM,–
O=C(NCc1ccccc1C(F)(F)F)c1cccc(NCc2nnc3n2CCOc2cnccc2-3)c1 [Compound of Formula III-55],82.3%,0.11 µM,85.9%,0.17 µM,–
"sgGrk2-2: ""sgGrk2-2 (SEQ ID NO: 3)""; ""doxycycline inducible sgRNAs targeting GRK2"" (guide GGTCCCGGTAGACCACGAAG; expressed or natural sequence)",–,–,–,–,"Difference between rel +dox and −dox signal [3]: 0.21; Rel +dox [3]: 0.79; GRK2/GAPDH normalized to −dox (Grk2 protein [4]): −0.24; GRK2/GAPDH (Grk2 protein [4]): −0.01; GRK2 Adj. Vol. (Int) (Grk2 protein [4]): −189,385.63; RFP/GFP ratio +dox normalized to RFP/GFP ratio −dox (PAXF1657; [8]): 1.00; RFP/GFP ratio +dox normalized to RFP/GFP ratio −dox (PAXF1657; [9]): 0.89; RFP/GFP ratio +dox normalized to RFP/GFP ratio −dox (PAXF1657; [10]): 0.76; RFP/GFP ratio +dox normalized to RFP/GFP ratio −dox (PAXF1657; [11]): 0.69; RFP/GFP ratio +dox normalized to RFP/GFP ratio −dox (PAXF1657; [12]): 0.57; RFP/GFP ratio +dox normalized to RFP/GFP ratio −dox (PAXF1657; [13]): 0.44; GRK2/GAPDH normalized to −dox (Grk2 protein [5]): 0.20; GRK2/GAPDH ratio (Grk2 protein [5]): 0.06; GRK2 Avg. Intensity (Grk2 protein [5]): 2,133,921.03; sgRNA-induced growth inhibition on re-expression of Grk2 kinase-dead cDNA (PAXF1657 cells; cleavage-resistant Grk2 kinase-dead cDNA): did not; sgRNA-induced growth inhibition on re-expression of Grk2 wild-type cDNA (PAXF1657 cells): reduced the sgRNA-induced growth inhibition"
O=C(NCc1cc[nH]n1)c1cc([C@@H]2CCNC[C@H]2COc2ccc3c(c2)OCO3)ccc1F [Compound of Formula II-26],43.3%,–,25.5%,> 10 µM,GI50 [1]: 1.49 µM
Fc1ccc([C@@H]2CCNC[C@H]2COc2ccc3[nH]ncc3c2)cc1CNCc1ccn[nH]1 [Compound of Formula II-33],42.7%,6.27 µM,0%,> 10 µM,–
